Among the test systems are LXFL 529; DMS-273; DLD-1; HOP-18; XF498; SNB-78; M19-MEL; DMS-114; RXF 631.
Holding throughout (assay): NCI tumour cell line growth inhibition, 48 h

Molecules are shown by their SMILES.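 Grown in 96-well plates, cells were treated for 48 hours with each compound at five concentrations. Insufficient inhibition: endpoint recorded as highest concentration tested. The concentration for 50% growth inhibition is given as GI50.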 Active and inactive are the calls of the source. Cut-off read from the data, not from the text of the source: active = GI50 up to about 1.1 µM and inactive = higher. Some results are limits rather than exact numbers.

Regarding `Nc1nc(O)c2c(ncn2CCO)n1`, the GI50 with LXFL 529, with DMS-273, with DLD-1, in the assay with HOP-18, in the assay on XF498 and in the assay with SNB-78 was > 100 µM (inactive) in each case. Also, the GI50 with M19-MEL was > 100 µM (inactive).

With `Nc1ccn(C2CCC(CO)O2)c(=O)n1` (stereo unspecified), the GI50 was > 100 µM (inactive) with DMS-273; > 100 µM (inactive) with DLD-1; 98.9 µM (inactive) in the assay with HOP-18; > 100 µM (inactive) in the assay with DMS-114; > 100 µM (inactive) in the assay with XF498; > 65.6 µM (inactive) in the assay with SNB-78. For the same compound, in the assay on M19-MEL, the GI50 was > 100 µM (inactive).

For `NC1=NS(=O)(=O)Nc2nc(-c3ccccc3)c(-c3ccccc3)nc21`, the GI50 in the assay with LXFL 529, with DMS-273, in the assay on DLD-1, with HOP-18, in the assay with XF498 and in the assay on SNB-78 was > 100 µM (inactive) in each case. The GI50 with M19-MEL is > 100 µM (inactive).

Regarding `CCc1nc2c(O)ccc(O)c2nc1C`, the GI50 was 4.97 µM (inactive) with LXFL 529; 19.9 µM (inactive) in the assay with DMS-273; 19.1 µM (inactive) in the assay on RXF 631; 2.9 µM (inactive) in the assay on DLD-1; 20.9 µM (inactive) with HOP-18; 18.2 µM (inactive) in the assay on DMS-114. Also, the GI50 with XF498 was 24.2 µM (inactive); with SNB-78 it was 27.8 µM (inactive); with M19-MEL, 7.35 µM (inactive).

Regarding `O=C1C(Cl)C(c2cc(Br)ccc2O)N1n1cnc2ccccc2c1=O` (stereo unspecified), the GI50 is 17.1 µM (inactive) in the assay with LXFL 529; 15.7 µM (inactive) in the assay with DMS-273; 15.6 µM (inactive) in the assay on DLD-1; 6.3 µM (inactive) with HOP-18; 5.46 µM (inactive) in the assay on DMS-114; 28.5 µM (inactive) with XF498. The GI50 was 30.9 µM (inactive) in the assay on SNB-78 and 10.7 µM (inactive) in the assay with M19-MEL.

With `Cc1cc(NCCCCCCCCNc2cc(C)nc3cc(N)ccc23)c2ccc(N)cc2n1`, the GI50 in the assay on LXFL 529 was 11.3 µM (inactive); in the assay on DMS-273, 4.56 µM (inactive); with DLD-1 it was 16.9 µM (inactive); in the assay with DMS-114, 3.35 µM (inactive); in the assay on M19-MEL, 15.5 µM (inactive).

In the case of `CC(C)(Br)C(=O)C(Br)Br`, the GI50 is 2.23 µM (inactive) in the assay on LXFL 529; 12.6 µM (inactive) in the assay with DMS-273; 14 µM (inactive) in the assay with RXF 631; 1.77 µM (inactive) in the assay on DLD-1; 5.36 µM (inactive) with DMS-114; 11.6 µM (inactive) in the assay with XF498. The GI50 is 5.06 µM (inactive) in the assay on SNB-78 and 6.01 µM (inactive) in the assay on M19-MEL.

On to `Fc1ccc(C2SCc3nc4ccccc4n32)c(F)c1` (stereo unspecified), for which the GI50 in the assay with DMS-273 was 38 µM (inactive); with RXF 631, 34.5 µM (inactive); with DLD-1, 67.6 µM (inactive); in the assay on HOP-18 it was > 100 µM (inactive); with DMS-114, 31.8 µM (inactive); in the assay with SNB-78, 38.1 µM (inactive). For the same compound, the GI50 in the assay on M19-MEL is 65.5 µM (inactive).

On to `O=c1c2cccnc2ncn1CCN1CCCCC1`, for which the GI50 in the assay with LXFL 529, in the assay on DMS-273, with DLD-1, in the assay on DMS-114, in the assay on XF498 and in the assay with SNB-78 was > 100 µM (inactive) each time. Further, the GI50 in the assay on M19-MEL is > 100 µM (inactive).

Take `CC(C)(C)c1cc2c3c(c1)C(C(F)(F)F)(C(F)(F)F)O[Te]3(C)OC2(C(F)(F)F)C(F)(F)F`: the GI50 in the assay on LXFL 529, with DMS-273, with DLD-1, with HOP-18, in the assay on DMS-114 and in the assay with XF498 was > 100 µM (inactive) throughout. Further, the GI50 in the assay on SNB-78 and in the assay with M19-MEL was > 100 µM (inactive) throughout.

With `Nc1nc2c(ncn2C2CCC(CO)O2)c(=O)n1C(=O)c1ccccc1` (stereo unspecified), the GI50 with LXFL 529, in the assay with DMS-273, in the assay with RXF 631, in the assay on DLD-1, in the assay on DMS-114 and with XF498 was > 100 µM (inactive) throughout. In addition, the GI50 with M19-MEL was > 100 µM (inactive).

Regarding `CCOC(=O)C(=O)NNc1nc2c(s1)C(=O)c1ccccc1C2=O`, the GI50 was 1.82 µM (inactive) in the assay with LXFL 529; 4.57 µM (inactive) with DMS-273; 11.2 µM (inactive) in the assay with RXF 631; 5.04 µM (inactive) with DLD-1; 2.24 µM (inactive) in the assay on HOP-18; 1.76 µM (inactive) in the assay on DMS-114. Moreover, the GI50 in the assay on XF498 was 2.09 µM (inactive); in the assay on SNB-78, 2.54 µM (inactive); in the assay on M19-MEL it was 0.544 µM (active).

In the case of `COC(=O)/C(C#N)=C1\CCc2ccccc21`, the GI50 in the assay with LXFL 529, with DMS-273, in the assay with DLD-1, with DMS-114, in the assay on XF498 and in the assay on M19-MEL was > 100 µM (inactive) throughout.

Regarding `CC1NS(=O)(=O)N(C)C1=O` (stereo unspecified), the GI50 in the assay with LXFL 529, in the assay on DMS-273, with RXF 631, in the assay on DLD-1, in the assay with DMS-114 and with XF498 was > 100 µM (inactive) in each case. Besides, the GI50 in the assay on SNB-78 and in the assay with M19-MEL was > 100 µM (inactive) each time.

On to `CC(C(=O)c1ccc(O)cc1)C1(O)C(=O)Nc2c(Cl)cc(Cl)cc21` (stereo unspecified), for which the GI50 in the assay with LXFL 529 was 26.9 µM (inactive); in the assay on DMS-273 it was 70.5 µM (inactive); in the assay with RXF 631, > 84.9 µM (inactive); in the assay on DLD-1 it was > 89.7 µM (inactive); in the assay on DMS-114 it was 13.9 µM (inactive); in the assay on XF498, 23.6 µM (inactive). The GI50 was 46.8 µM (inactive) in the assay on SNB-78 and 20.6 µM (inactive) in the assay on M19-MEL.

For `COC(=O)C(=C\Sc1ccccc1)/C=C/C(=O)OC(C)(C)C`, the GI50 is 3.5 µM (inactive) in the assay with LXFL 529; 11.9 µM (inactive) with DMS-273; 2.62 µM (inactive) in the assay on DLD-1; 16.2 µM (inactive) in the assay with HOP-18; 11.2 µM (inactive) with DMS-114; 15 µM (inactive) with XF498. The GI50 was 15.1 µM (inactive) with SNB-78 and 10.8 µM (inactive) in the assay with M19-MEL.

For the compound `CCOC(=O)C=C1CCC2(CC1)OCCO2`, the GI50 with LXFL 529, with RXF 631, in the assay on DLD-1, in the assay with HOP-18, in the assay on XF498 and in the assay with M19-MEL was > 100 µM (inactive) each time.

Take `COc1cc(CNc2cnc3cc(N)ccc3n2)cc(OC)c1OC`: the GI50 with LXFL 529 was 34.9 µM (inactive); with DMS-273, 0.191 µM (active); in the assay on DLD-1, 58.1 µM (inactive); in the assay with HOP-18, 78.5 µM (inactive); with DMS-114, 18.8 µM (inactive); with XF498 it was 22.6 µM (inactive). Moreover, the GI50 in the assay with M19-MEL is 16.5 µM (inactive).

Turning to `COc1ccc2nc3c(C(=O)NCCN(C)C)cccc3nc2c1`, the GI50 is 4.42 µM (inactive) in the assay with DMS-273; 27.7 µM (inactive) in the assay with HOP-18; 5.82 µM (inactive) in the assay on DMS-114; 7.16 µM (inactive) in the assay on SNB-78; 5.05 µM (inactive) in the assay on M19-MEL.

For `N#Cc1c2nc3ccccc3nc2n2ccccc12`, the GI50 with LXFL 529, in the assay with DMS-273, in the assay with DLD-1, in the assay on DMS-114, in the assay with XF498 and in the assay on SNB-78 was > 100 µM (inactive) each time. Also, the GI50 in the assay on M19-MEL was > 100 µM (inactive).

`CCOC(=O)CN.CCOC(=O)Nc1ccc(S(=O)(=O)OC)cc1.CCOC(=O)Nc1ccc(S(=O)(=O)OC)cc1`: the GI50 with LXFL 529, in the assay with DMS-273, in the assay with RXF 631, with DLD-1, in the assay on HOP-18 and in the assay with DMS-114 was > 50 µM (inactive) throughout. Further, the GI50 in the assay on SNB-78 and in the assay on M19-MEL was > 50 µM (inactive) throughout.

As to `C#CCOCn1cnc2c(Sc3c([N+](=O)[O-])ncn3C)ncnc21`, the GI50 with LXFL 529 is 55.8 µM (inactive); in the assay on DMS-273, > 100 µM (inactive); with RXF 631, > 100 µM (inactive); in the assay on DLD-1, > 100 µM (inactive); in the assay with DMS-114 it was > 100 µM (inactive); with XF498 it was > 100 µM (inactive). The GI50 in the assay on M19-MEL was > 100 µM (inactive).

Take `CC12OC3CC(O1)C1(C=O)C4CCC5(C)C(c6ccc(=O)oc6)CCC5(O)C4CCC1(C3)O2` (stereo unspecified): the GI50 in the assay on LXFL 529 was 0.139 µM (active); in the assay with DMS-273 it was 0.0519 µM (active); in the assay on DLD-1, 0.0995 µM (active); in the assay on HOP-18, 0.252 µM (active); in the assay with DMS-114, 0.0414 µM (active); in the assay on SNB-78, 0.131 µM (active). Moreover, the GI50 in the assay with M19-MEL was 0.258 µM (active).

Consider `Cc1ccc(O)c(C(=O)CCCC(=O)c2cc(C)ccc2O)c1`, for which the GI50 in the assay with LXFL 529 is > 100 µM (inactive); in the assay with DMS-273, 55.3 µM (inactive); in the assay on DLD-1, > 100 µM (inactive); in the assay on HOP-18 it was > 100 µM (inactive); in the assay with DMS-114 it was 32.9 µM (inactive); in the assay on XF498, > 100 µM (inactive). The GI50 is 55.8 µM (inactive) in the assay with SNB-78 and > 100 µM (inactive) with M19-MEL.

As to `CC1=C(/C=C/C(C)=C/C=C/C(C)=C/C(=O)O)C(C)(C)CCC1` [TRETINOIN], the GI50 in the assay with LXFL 529, in the assay on DMS-273, in the assay with DLD-1, with HOP-18, in the assay with DMS-114 and with XF498 was > 100 µM (inactive) throughout. Also, the GI50 with M19-MEL was > 100 µM (inactive).

Values taken from ChEMBL document CHEMBL1201862, “PubChem BioAssay data set” (2004).
